{"source": "patent US11717528B2", "about": "“Methods and compositions relating to the treatment of fibrosis” (BROWN UNIVERSITY, priority 2017, dated 2023)", "key": {"recombinant Chit1": {"molecular_target": "recombinant Chit1 (Homo sapiens, UniProt Q13231)", "sequence (Q13231 22-466, species assumed)": "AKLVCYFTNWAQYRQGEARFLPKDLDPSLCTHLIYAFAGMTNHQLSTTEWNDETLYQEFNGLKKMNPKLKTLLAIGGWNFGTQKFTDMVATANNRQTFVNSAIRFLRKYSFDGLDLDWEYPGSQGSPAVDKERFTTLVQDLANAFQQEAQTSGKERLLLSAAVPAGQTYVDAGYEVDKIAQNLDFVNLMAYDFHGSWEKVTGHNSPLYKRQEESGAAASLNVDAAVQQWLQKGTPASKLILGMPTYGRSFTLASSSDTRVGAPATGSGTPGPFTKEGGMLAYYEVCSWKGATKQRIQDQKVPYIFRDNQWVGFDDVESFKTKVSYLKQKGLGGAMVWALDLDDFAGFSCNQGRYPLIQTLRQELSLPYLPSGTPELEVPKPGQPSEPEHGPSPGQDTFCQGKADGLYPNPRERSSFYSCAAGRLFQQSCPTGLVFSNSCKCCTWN", "test": "Chit1 inhibitor screen and dose-response validation", "type": "biochemical", "conditions": "for ability to inhibit Chit1 (chitotriosidase) activity: among aminoglycoside antibiotics (FIG. 1)", "description": "FIG. 4 depicts dose-response validation of inhibitory activities of kasuagmycin on Chit1 activities\nChit1 is a biomarker and therapeutic target of SSc-ILD, as well as plahing a significant role in bleomycin- and IL-13-induced pulmonary fibrosis. In order to discover new therapeutic approaches for fibrotic diseases, we screened for inhibitors of Chit1, using pentoxifylline as a positive control. The results of the screen were expressed as a % of the inhibitory activity of 200 uM of pentoxifylline. This assay identified 51 compounds that have more than 45% of inhibition (compared to 200 μM pentoxifylline). One of the compounds so identified was kasugamycin.\n(§1) The results were validated by measuring dose-response (FIG. 4). Assay conditions were 0.33 nM of recombinant Chit1, 1 μM of test compound, 4 μM of substrate, 30 min incubation at room temperature."}, "[1]": {"system": "bleomycin-induced pulmonary fibrosis", "test": "kasugamycin by gavage in the bleomycin IP model", "type": "in vivo, WT C57BL/6 mice", "conditions": "kasugamycin 50, 100 or 500 mg/kg by gavage everyday", "description": "FIGS. 13A-13B depict the effect of kasugamycin when given by gavage in the bleomycin IP model. FIG. 13A depicts a schematic illustration of the experimental procedure. Pulmonary fibrosis was induced in WT C57BL/6 mice by injecting bleomycin 6 times intra-peritoneal (IP) injection (25 unit/kg) daily (day 1-6). Units/injection—100 uL of 6 U/mL bleomycin solution (0.6 unit/injection). Kasugamycin was then administered at 50 mg/kg, 100 mg/kg, or 500 mg/kg, gavage everyday. FIG. 13B depicts a graph of the effects on collagen count. The x-axis specifies the dose of kasugamcyin used."}, "[2]": {"system": "bleomycin-induced pulmonary fibrosis", "test": "bleomycin I.T. model of pulmonary fibrosis", "type": "in vivo, mice", "conditions": "bleomycin I.T. model (FIG. 9)", "description": "FIG. 5 depicts schematic diagrams of in vivo validation of antifibrotic effect of Chit1 inhibitors using bleomycin models of pulmonary fibrosis\nFIG. 9 depicts BAL cell recovery and total lung coallagen with and without Kasugamycin treatment (I.T. Model)\nas §1"}, "[3]": {"system": "TGFβ1-stimulated inflammation and fibrosis", "test": "transgenic TGFβ1-stimulated inflammation and fibrosis", "type": "in vivo, TGFβ1 transgenic mice", "conditions": "for fibrosis: transgenic TGFβ1 stimulation (FIG. 10, 11)", "description": "FIG. 10 depicts graphs of the effect of Kasugamycin on transgenic TGFβ1-stimulated inflammation and fibrosis\nFIG. 11 depicts the effect of kasugamycin on TGFβ1-stimulated fibrosis. In this figure WT=wild type mice; TG=TGFβ1 transgenic mice.\nas §1"}, "[4]": {"system": "bleomycin-induced pulmonary fibrosis", "test": "bleomycin I.P. model of pulmonary fibrosis, kasugamycin I.P.", "type": "in vivo, C57 BL/6 mice", "conditions": "for pulmonary fibrosis / total lung collagen: bleomycin 25 Unit/kg daily for 6 days, kasugamycin 50 mg/Kg I.P. every other day, 7 doses, Sircol", "description": "FIG. 2 depicts a schematic of experiments described herein, using a method reported by Inomata et al (Respiratory Research, 2014, 15:16) that was used for therapeutic efficacy of pirifenidone with minor modification. 8 Week old C57 BL/6 mice were used for the evaluation. Bleomycin (25 Unit/kg) was given daily for 6 days. Seven days after the last bleomycin challenge, Kasugamycin (50 mg/Kg) or PBS were delivered every other day via I.P. injection. The mice received a total of 7 doses of Kasugamycin. The mice were sacrificed a day after the last injection of Kasugamycin.\nFIG. 3A depicts the results of a lung collagen assay by Sircol. FIG. 3B depicts results of RT-PCR assay of selected extracellular matrix genes on lung lysate *p<0.05, **p<0.01 by ANOVA evaluation, Bleo, bleomycin; KSM, kasugamycin.\nThe therapeutic window of kasugamycin was investigated using the method described in Inomata et al (Respiratory Research 2014 15:16) that was used to establish the therapeutic efficacy of pirifendidone, with minor modifications. Briefly, 8 week old C57 BL/6 mice were used for the evaluation. Bleomycin (25 Unit/kg) was given daily for 6 days. Seven days after the last bleomycin challenge, kasugamycin (50 mg/Kg) or PBS were delivered every other day via I.P. injection. The mice received a total of 7 doses of kasugamycin. The mice were sacrificed a day after the last injection of kasugamycin (FIG. 2)."}, "[5]": {"system": "fibrosis (collagen accumulation)", "test": "bleomycin-treated Hermansky-Pudlak syndrome mice", "type": "in vivo, HPS-1 null mice (pale ear mice)", "conditions": "bleomycin IP 5 consecutive days, kasugamycin 50 mg/kg qod from day 12", "description": "FIG. 12A depicts a schematic illustration of the experiemental procedure. Bleomycin was given IP for 5 consecutive days followed by kasugamycin at 50 mg/kg qod for 7 days starting on day 12. FIG. 12B depicts a graph of the effects on fibrosis (collagen accumulation)."}, "[6]": {"conditions": "cited from earlier work"}}, "note": "“Also recorded” adds a separate entry of the source.", "data": [{"smiles": "C[C@H]1O[C@H](O[C@H]2[C@H](O)[C@@H](O)[C@@H](O)[C@H](O)[C@@H]2O)[C@@H](N)C[C@@H]1NC(=N)C(=O)O", "note": "[kasugamycin, 2-amino-2-[(2R,3S,5S,6R)-5-amino-2-methyl-6-[(2R,3S,5S,6S)-2,3,4,5,6-pentahydroxycyclohexyl]oxyoxan-3-yl]iminoacetic acid]", "values": [{"measurement": "inhibition of Chit1, expressed as % of the inhibitory activity of 200 uM pentoxifylline", "setting": "recombinant Chit1", "value": "more than 45%"}, {"measurement": "ability to inhibit Chit1 (chitotriosidase) activity", "setting": "recombinant Chit1", "value": "can inhibit Chit1"}, {"measurement": "ability to inhibit Chit1 (chitotriosidase) activity", "setting": "recombinant Chit1; listed as Kasugamycin", "value": "unique in its ability to inhibit chitotriosidase activity"}, {"measurement": "ability to inhibit Chit1 (chitotriosidase) activity", "setting": "recombinant Chit1; listed as kasugamcyin", "value": "unique amongst aminoglycosides in its ability to inhibit Chit 1"}, {"measurement": "fibrosis (collagen count)", "setting": "[1]", "value": "reduced fibrosis"}, {"measurement": "BAL cell recovery", "setting": "[2]", "value": "affected BAL cell recovery"}, {"measurement": "fibrosis / lung collagen", "setting": "[2]", "value": "reduced lung collagen; also recorded: potent inhibitor of fibrosis"}, {"measurement": "inflammation", "setting": "[3]; transgenic TGFβ1 stimulation (FIG. 10)", "value": "inhibited inflammation"}, {"measurement": "fibrosis", "setting": "[3]", "value": "potent inhibitor of fibrosis"}, {"measurement": "fibrosis", "setting": "[3]; listed as Kasuagmyicn", "value": "inhibited"}, {"measurement": "matrix gene expression (RT-PCR on lung lysate)", "setting": "[4]; after bleomycin, kasugamycin 50 mg/Kg I.P.", "value": "decreased"}, {"measurement": "pulmonary fibrosis / total lung collagen", "setting": "[4]", "value": "reduction of collagen; also recorded: potent inhibitor of fibrosis; also recorded: reduced pulmonary fibrosis"}, {"measurement": "pulmonary fibrosis / total lung collagen", "setting": "[4]; listed as Kasugamycin", "value": "decreased pulmonary fibrosis"}, {"measurement": "lung histology", "setting": "[4]; bleomycin I.P. model (FIG. 7)", "value": "affect on histology"}, {"measurement": "fibrosis (collagen accumulation)", "setting": "[5]", "value": "potent inhibitor of fibrosis"}, {"measurement": "fibrosis (collagen accumulation)", "setting": "[5]; listed as Kasugamycin", "value": "reduced fibrosis"}, {"measurement": "water solubility", "setting": "[6]", "value": "water soluble"}]}]}
